Consider twelve molecules from patent publication US20190225643A1, “NOVEL NUCLEOSIDE ANALOGS AND USE THEREOF IN THERAPEUTIC TREATMENT” (CORNELL UNIVERSITY, priority 2016, published 2019).

One data set concerns BC3 (PEL). Nature of the data set: cells. In kind it is cell-based. The protocol: (§1) Cell viability assays were performed by plating log-phase cells in RPMI complete media with 20% FBS at 1*10^5 cells/mL, with concentrations of 6-ETI or phospho-6-ETI ranging from 0.1 nM to 100 μM. ATP content at 24, 48 and 72 hours post-treatment was measured by the CellTiter-Glo kit (Promega, Madison, Wis.), or by Trypan blue assay as indicated. The LC50 for 6-ETI in each cell line was determined using online EC50 software at changbioscience.com or using GraphPad Prism to determine the LC50 for 6-ETI, phospho-6-ETI and nucleoside analogs in MM cell lines and primary MM patient samples.

The test system of the next data set is IBL-1 (EBV+ DLBCL). Nature of the data set: cells. In kind it is cell-based. As to the method:
as §1

A further data set deals with U266 (MM). Nature of the data set: cells. It is filed as cell-based. As to the method:
as §1

Data set [1] relates to BC3 cells treated with 6-ETI. Put plainly: 6-ETI viability curves after ADK inhibitor pre-treatment. It is filed as cell-based, human. The conditions noted are these: pre-treatment with 1 μM ADK inhibitor. The protocol:
as §1

The next data set has as its target ADK (Homo sapiens, UniProt P55263). The conditions noted are these: known values; read-out: IC50 of ADK inhibition in intact cells; cited from earlier work.
Data set [2] has as its system BC3NFRen-luc #3 PEL xenograft. Nature of the data set: PEL xenograft model (BC3NFRen-luc #3 in NOD-SCID mice). In kind it is in vivo. The conditions noted are these: 200 mg/kg for 9 days. The protocol: The BC3 in vivo xenograft model was set up as previously described (6). Essentially, ˜4-6 week old male NOD-SCID mice (Jackson Labs Stock# 001303) were injected intraperitoneally (I.P.) with 1*10^7 BC3NFRen-luc #3 cells and followed by in vivo imaging every three days. After imaging on day 5 to confirm establishment of the tumor, the mice were randomized to vehicle, low dose and high dose cohorts, with average tumor burden distributed evenly across the groups. Each dose cohort contained 10 mice. Mice were treated for nine days beginning at randomization with vehicle (PBS-Tween80), low dose 6-ETI (150 mg/kg/day), or high dose 6-ETI (300 mg/kg/day). Mice were treated with 200 mg/kg of the 6-ETI analogs (phospho-6ETI and 6-ETI cAMP) for 9 days. We monitored mice for tumor growth by live imaging and weighing, with sacrifice point determined to be a net gain or loss of 10% body weight over a week. Upon reappearance of refractory tumors, mice were re-treated for a further 9-day interval, and followed for a total of 100 days. Compound effects were assessed on overall survival, progression-free survival and tumor burden by Kaplan-Meier curves generated using GraphPad Prism software, and determined p values by 2-tailed analysis with log-rank tests.

The test system of data set [3] is MM cell lines JJN3, MM1S, U266 and CAG. Put plainly: CellTiter-Glo viability assay, MM cell lines. In kind it is cell-based. The conditions noted are these: 48 hrs. As to the method:
as §1
In general terms: In ATP-based viability assays light output follows the ATP content of the culture.

For data set [4], the system named is colon (RKO, HCT116, DID1) and pancreatic (PA-TU-8988T) cancer cell lines. Put plainly: Viability of adenocarcinoma cell lines. It is filed as cell-based. The protocol:
as §1

Data set [5] relates to sensitive cell lines (expressing ADK at high levels). Nature of the data set: Viability in 6-ETI-sensitive cell lines. It is filed as cell-based. The conditions noted are these: p6-ETI: sensitive ADK-high lines; c6-ETI: PEL, MM, colon and pancreatic adenocarcinoma lines. As to the method:
as §1

Data set [6] concerns ADK-low resistant cell lines. Nature of the data set: Viability in ADK-low resistant cell lines. It is filed as cell-based. The conditions noted are these: some lines, not all. As to the method: as §1
Another data set concerns PEL cell line. Nature of the data set: PEL cell line viability assay of C8-modified analogs. It is filed as cell-based. As to the method:
as §1

Setting [7] is: Homo sapiens, 48 h, read-out: LC50 BC3 (PEL) in nM.
The mark [8] stands for this setting: Homo sapiens, U-266, 48 h, read-out: LC50 U266 (MM) in nM.
Where [9] appears, read: Homo sapiens, 48 h, read-out: LC50 BC3 (PEL).
[10] abbreviates: Homo sapiens, 48 h, read-out: LC50 IBL-1 (DLBCL).
Where [11] appears, read: Homo sapiens, U-266, 48 h, read-out: LC50 U266 (MM).

SMILES strings stand for the structures. pIC50: −log10 of the molar value. Read-outs that look alike come from different tables or passages of the source. Bounds are passed on as bounds.

ADK, sequence (P55263 whole entry): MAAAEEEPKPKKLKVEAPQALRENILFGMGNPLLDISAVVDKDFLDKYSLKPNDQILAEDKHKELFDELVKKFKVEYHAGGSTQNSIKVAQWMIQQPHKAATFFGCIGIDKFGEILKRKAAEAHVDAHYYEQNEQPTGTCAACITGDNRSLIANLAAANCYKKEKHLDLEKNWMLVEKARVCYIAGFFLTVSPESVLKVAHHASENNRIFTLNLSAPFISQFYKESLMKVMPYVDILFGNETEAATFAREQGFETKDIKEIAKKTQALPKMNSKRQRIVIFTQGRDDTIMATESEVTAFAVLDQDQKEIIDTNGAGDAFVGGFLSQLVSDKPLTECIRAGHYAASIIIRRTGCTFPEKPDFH

As for `Nc1nc(Cl)nc2c1ncn2[C@H]1C[C@H](O)[C@@H](CO)O1` [Cladribine], the CC50 in the data set with BC3 (PEL) (setting [7]) turned out to be 5240 nM; with IBL-1 (EBV+ DLBCL) (Homo sapiens, 48 h, read-out: LC50 IBL-1 (DLBCL) in nM), 290 nM; in the data set on U266 (MM) (setting [8]), 29200 nM.
By pIC50 is commonly meant the negative decadic logarithm of the IC50, by convention in mol/L. In the case of `Nc1ncnc2nc(-c3ccc(N4CCOCC4)nc3)cc(-c3cccc(Br)c3)c12` [ABT-702], the “rescue from 6-ETI-induced cell death” value in data set [1] is “effectively rescued PEL cells from cell death”. On ADK, the negative-log IC50 (pIC50) is 7.29.
Consider `CCSc1ncnc2c1ncn2[C@@H]1O[C@H](COP(=O)(O)O)[C@@H](O)[C@H]1O` [p6-ETI], for which the “effect on resistance of IBL-1 cells” value in the data set with IBL-1 (EBV+ DLBCL) (IBL-1 express low levels of ADK, 48 hrs) is on record as “partially overcomes resistance”. Also, in data set [2], the “tumor growth in vivo” value is on record as “effectively inhibited tumor growth in vivo”. The LC50 result in data set [3] is reported as “high nM range”; in data set [4], “nanomolar range”. For the same molecule, the “effectiveness compared with 6-ETI” value in data set [5] was “equally effective as 6-ETI”. Also, the “sensitivity of ADK-low resistant cell lines” value in [6] is “only partial sensitivity”.
Take `O=c1[nH]cnc2c1ncn2[C@H]1CC[C@@H](CO)O1` [Didanosine]: the CC50 with BC3 (PEL) (setting [9]), in the data set on IBL-1 (EBV+ DLBCL) (setting [10]) and in the data set with U266 (MM) (setting [11]) was over 100000 nM in each case.
For `Nc1ncnc2c1c(I)cn2[C@@H]1C[C@H](N)[C@@H](O)[C@H]1O` [Compound A-134974], the “rescue from 6-ETI-induced cell death” value in [1] is “effectively rescued PEL cells from cell death”. For the same molecule, the negative-log IC50 (pIC50) at ADK is 7.30.
In the data set with PEL cell line, `CCSc1ncnc2c1nc(Br)n2[C@@H]1O[C@H](CO)[C@@H](O)[C@H]1O` [Br group at C8 position, 8-bromo, 6-thioehtyl purine riboside] had a pIC50 of 5.09.
On to `CCSc1ncnc2c1ncn2[C@@H]1O[C@@H]2COP(=O)(O)OC2C1O` (stereo partly shown) [c6-ETI], for which, in data set [2], the “tumor growth in vivo” value is given as “effectively inhibited tumor growth in vivo”. Further, the LC50 result in [4] is “nanomolar range”. In addition, in [5], the “effectiveness compared with 6-ETI” value was “equally as effective”.
`CCSc1ncnc2c1nc(Cl)n2[C@@H]1O[C@H](CO)[C@@H](O)[C@H]1O` [C1 group at C8 position, 8-chloro, 6-thioethyl purine riboside]: in the data set with PEL cell line, the pIC50 was 5.85.
For `Nc1nc(F)nc2c1ncn2[C@@H]1O[C@H](CO)[C@@H](O)[C@@H]1O` [Fludarabine], the CC50 in the data set with BC3 (PEL) (48 hours, CellTiter-Glo, read-out: LC50 BC3 (PEL)) is over 100000 nM; with IBL-1 (EBV+ DLBCL) (48 hours, CellTiter-Glo, read-out: LC50 IBL-1 (DLBCL)), 28900 nM; in the data set on U266 (MM) (48 hours, CellTiter-Glo, read-out: LC50 U266 (MM)), 90700 nM.
In the case of `Sc1ncnc2nc[nH]c12` [6-Mercaptopurine], the CC50 in the data set on BC3 (PEL) (setting [7]) was 5140 nM; in the data set with IBL-1 (EBV+ DLBCL) (setting [10]) it was over 100000 nM; in the data set on U266 (MM) (setting [8]), 10300 nM.
On to `Nc1ncnc2c1ncn2[C@@H]1O[C@H](CO)[C@@H](O)[C@@H]1O` [Vidarabine], for which the CC50 in the data set with BC3 (PEL) (setting [9]), in the data set with IBL-1 (EBV+ DLBCL) (setting [10]) and in the data set with U266 (MM) (setting [11]) was over 100000 nM in each case.
With `CCSc1ncnc2c1nc(N=[N+]=[N-])n2C1OC(CO)C(O)C1O` (stereo not shown) [N3 group at C8 position], the negative-log IC50 (pIC50) in the data set on PEL cell line was 5.95.
